Assay results reported in PMC8781960, “Structural Basis of 2-Phenylamino-4-phenoxyquinoline Derivatives as Potent HIV-1 Non-Nucleoside Reverse Transcriptase Inhibitors” (Molecules, 2022).
Marks after values point to notes of the source that are not given here.

Columns and labels:
[1] = tested on: MOLT-3 (acute lymphoblastic leukemia); experiment: In vitro cytotoxicity (XTT); conditions: for IC50: Homo sapiens, MOLT-3, 48 h, read-out: IC50 MOLT-3
Experimental: (§1) Background control wells contained the same volume as the complete culture medium. […] Samples at various concentrations were added to the microplate and incubated for another 48 h. Cell viability was determined by 3(4,5-dimethylthiazol-2-yl)-2-5-diphenyl tetrazolium bromide (MTT) assay (Sig-ma-Aldrich). The reagent was dissolved in phosphate-buffered saline at 5 mg/mL and filtered to sterilize and remove the small amount of insoluble residue present in some batches of MTT. […] Subsequently, dimethyl sulfoxide (100 µL; Merck, Germany) was added to dissolve the resulting formazan by sonication. The plates were read on a microplate reader (Molecular Devices, CA, USA) using a test wavelength of 550 nm and a reference wavelength of 650 nm. XTT assay for suspension cells was used for MOLT-3 cells.

[2] = tested on: MRC-5 (normal embryonic lung cell); experiment: In vitro cytotoxicity (MTT), normal cell line; conditions: for IC50: Homo sapiens, MRC5, 48 h, read-out: IC50 MRC-5
Experimental: as §1

HL-60 (promyeloblast) = experiment: In vitro cytotoxicity (MTT); conditions: for IC50: Homo sapiens, HL-60, 48 h, read-out: IC50 HL-60
Experimental: as §1

[3] = tested on: HeLA (cervical carcinoma); experiment: In vitro cytotoxicity (MTT); conditions: for IC50: Homo sapiens, HeLa, read-out: IC50 HeLA
Experimental: as §1

[4] = tested on: MDA-MB-231 (hormone-independent breast cancer); experiment: In vitro cytotoxicity (MTT); conditions: for IC50: Homo sapiens, MDA-MB-231, 48 h, read-out: IC50 MDA-MB-231
Experimental: as §1

HepG2 (hepatocarcinoma) = experiment: In vitro cytotoxicity (MTT); conditions: for IC50: Homo sapiens, HepG2, 48 h, read-out: IC50 HepG2
Experimental: as §1

[5] = tested on: HuCCA-1 (cholangiocarcinoma); experiment: In vitro cytotoxicity (MTT); conditions: for IC50: Homo sapiens, HuCC-A1, 48 h, read-out: IC50 HuCCA-1
Experimental: as §1

A549 (lung carcinoma) = experiment: In vitro cytotoxicity (MTT); conditions: for IC50: Homo sapiens, A549, 48 h, read-out: IC50 A549
Experimental: as §1

[6] = tested on: T47-D (hormone-dependent breast cancer); experiment: In vitro cytotoxicity (MTT); conditions: for IC50: Homo sapiens, T47D, read-out: IC50 T47-D
Experimental: as §1

S102 (Thai liver cancer) = experiment: In vitro cytotoxicity (MTT); conditions: for IC50: Homo sapiens, read-out: IC50 S102
Experimental: as §1

[7] = tested on: H69AR (lung cancer, multidrug resistant); experiment: In vitro cytotoxicity (MTT); format: cell-based, human; conditions: for IC50: Homo sapiens, H69AR, mean ± standard error
Experimental: Background control wells contained the same volume as the complete culture medium. […] The reagent was dissolved in phosphate-buffered saline at 5 mg/mL and filtered to sterilize and remove the small amount of insoluble residue present in some batches of MTT. […] Subsequently, dimethyl sulfoxide (100 µL; Merck, Germany) was added to dissolve the resulting formazan by sonication. The plates were read on a microplate reader (Molecular Devices, CA, USA) using a test wavelength of 550 nm and a reference wavelength of 650 nm.

HIV-1 RT = target: T1, HIV-1 RT (Human immunodeficiency virus type 1 group M subtype B, UniProt P03366); experiment: HIV-1 RT inhibition assay (Roche RT kit, colorimetric ELISA); format: biochemical; conditions: for inhibition at 1 µM: read-out: Inhibitory activities (%) against HIV-1 RT
T1 construct: The reaction mixture consisted of template/primer complex, 2′-deoxy-nucleotide-5′-triphosphates (dNTPs), and RT enzyme in lysis buffer; purchased Roche Applied Science, Mannheim, Germany
Text: The inhibition assay of HIV-1 RT was accomplished using the template/primer hybrid poly(A) × oligo(dT)15, digoxigenin (DIG)- and biotin-labeled nucleotides, an antibody to DIG that was conjugated to peroxidase (anti-DIG-POD), and the peroxidase substrate ABTS. The quantities of DIG- and biotin-labeled dUTP incorporated into DNA represent t HIV-1 RT activity. The HIV-RT inhibition assay was implemented using an RT assay kit (Roche Applied Science, Mannheim, Germany), and the procedures for assaying RT inhibition were performed as described in the kit protocol. […] The reaction mixture consisted of template/primer complex, 2′-deoxy-nucleotide-5′-triphosphates (dNTPs), and RT enzyme in lysis buffer with or without an inhibitor. […] The biotin-labeled dNTPs that were incorporated in the template bound to streptavidin because of the presence of RT. Unbound dNTPs were washed using a wash buffer, and anti-DIG-POD was added to the MTP. The DIG-labeled dNTPs incorporated in the template bound to the anti-DIG-POD antibody. Unbound anti-DIG-POD was also washed elaborately five times using a wash buffer. Finally, the peroxide substrate (ABST) was added to the MTP. A colored reaction product emerged during the cleavage of the substrate catalyzed by […]. The absorbance of the sample was measured at the optical density (OD) at 490 nm using the MTP (enzyme-linked immunosorbent assay [ELISA]) reader. The percentage inhibitory activities of the RT inhibitors were calculated by comparing with that of the sample without an inhibitor. The resulting color intensity was directly proportional to the RT activity. Percentage inhibitory values were calculated using the following formula: Inhibition (%) = [1–(OD value with RT and inhibitor−OD value without RT and inhibitors)/(OD value without inhibitors with RT−OD value without RT and inhibitors)] × 100.

[8] = normal cell line, at 50 µg/mL, inactive (IC50 ≥ 50 µg/mL)
[9] = at 50 µg/mL, inactive (IC50 ≥ 50 µg/mL)

Molecule | IC50 [1] | IC50 (HL-60 (promyeloblast)) | IC50 ([3]; 48 h) | IC50 [4] | IC50 (HepG2 (hepatocarcinoma)) | IC50 [5] | IC50 ([6]; 48 h) | IC50 (S102 (Thai liver cancer); 48 h) | IC50 ([7]; 48 h) | %C percentage cytotoxicity MRC-5 [2, 8] | %C percentage cytotoxicity HL-60 (HL-60 (promyeloblast); [9]) | %C percentage cytotoxicity MDA-MB-231 [4, 9] | %C percentage cytotoxicity HepG2 (HepG2 (hepatocarcinoma); [9]) | %C percentage cytotoxicity HuCCA-1 [5, 9] | %C percentage cytotoxicity A549 (A549 (lung carcinoma); [9]) | %C percentage cytotoxicity T47-D [6, 9] | %C percentage cytotoxicity S102 (S102 (Thai liver cancer); [9]) | inhibition at 1 µM (HIV-1 RT) | %C percentage cytotoxicity H69AR ([7]; human, 48 h, 50 µg/mL) | %C percentage cytotoxicity MOLT-3 [1, 9] | other results
COc1cccc2c1C(=O)c1c(O)c3c(c(O)c1C2=O)C[C@@](O)(C(=O)CO)C[C@@H]3O[C@H]1C[C@H](N)[C@H](O)[C@H](C)O1 [Doxorubicin, reference compound] | 0.02 µM | 0.1 µM | 0.4 µM | 2.5 ± 0.1 µM | 0.6 µM | 0.9 µM | 1.2 µM | 2.2 µM | 34.3 ± 0.1 µM |  |  |  |  |  |  |  |  |  |  |  | IC50 [2]: 3.1 ± 0.5 µM; IC50 (A549 (lung carcinoma)): 0.6 µM
Cc1cc(/C=C\C#N)cc(C)c1Oc1cc(Nc2ccc(C#N)cc2)nc2ccccc12 [Compound 9b-cis, 4-(4′-(2″-(E, Z)-cyanovinyl)-2′,6′-dimethyl-phenoxy)-2-(4″-cyanophenyl)-aminoquinoline] | 52.8 ± 2.1 µM |  | 97.2 ± 5.1 µM |  |  |  |  |  |  | %C = 0.0 ^c | %C = 42.0 ^c | %C = 10.0 ^c | %C = 9.8 ^c | %C = 10.0 | %C = 1.0 ^c | %C = 5.0 ^c | %C = 0.0 ^c | 32.5 ± 2.8% | %C = 0.0 ^c |  | 
O=C1Nc2ccc(Cl)cc2[C@@](C#CC2CC2)(C(F)(F)F)O1 [EFV, efavirenz, reference compound] | 24.6 ± 1.2 µM | 33.7 ± 1.1 µM | 46.2 ± 1.3 µM | 77.7 ± 5.6 µM | 86.6 ± 3.9 µM | 59.6 ± 2.4 µM | 59.2 ± 0.8 µM | 93.5 ± 4.7 µM | 105 ± 3.4 µM |  |  |  |  |  |  |  |  |  |  |  | IC50 [2]: 95.6 ± 6 µM; IC50 (A549 (lung carcinoma)): 60.2 ± 1.8 µM
COc1cc([C@@H]2c3cc4c(cc3[C@@H](O[C@@H]3O[C@@H]5CO[C@@H](C)O[C@H]5[C@H](O)[C@H]3O)[C@H]3COC(=O)[C@H]23)OCO4)cc(OC)c1O [Etoposide, etoposide, reference compound] | 0.03 µM | 0.8 ± 0.1 µM |  |  | 49.9 ± 1.1 µM |  |  |  |  |  |  |  |  |  |  |  |  |  |  |  | 
Cc1cc(/C=C/C#N)cc(C)c1Oc1cc(Nc2ccc(C#N)cc2)nc2ccccc12 [Compound 9b-trans, 4-(4′-(2″-(E, Z)-cyanovinyl)-2′,6′-dimethyl-phenoxy)-2-(4″-cyanophenyl)-aminoquinoline] |  |  |  |  |  |  |  |  |  | %C = 28.4 ^c | %C = 17.0 ^c | %C = 24.9 ^c | %C = 42.9 ^c | %C = 8.0 ^c | %C = 8.0 ^c | %C = 0.0 ^c | %C = 0.0 ^c | 35.9 ± 3.1% | %C = 14.0 ^c | %C = 19.0 ^c | %C percentage cytotoxicity HeLA [3, 9]: %C = 38.0 ^c
Cc1cc(/C=C/C#N)cc(C)c1Nc1ccnc(Nc2ccc(C#N)cc2)n1 [RPV, rilpivirine, reference compound] | 4.3 ± 0.5 µM | 11.5 ± 0.8 µM | 11.3 ± 1.2 µM | 25.3 ± 2.9 µM | 87.4 ± 0.1 µM | 61.3 ± 1.7 µM | 15 ± 1.3 µM | 22.5 ± 1.2 µM | 57.1 ± 2 µM | %C = 14.4 ^c |  |  |  |  | %C = 42.0 ^c |  |  | 97.1 ± 0.9% |  |  | cytotoxicity toward normal embryonic lung (MRC-5) cells, in words [2]: very low cytotoxicity; IC50 (HIV-1 RT): 0.06 µM
Cc1ccnc2c1NC(=O)c1cccnc1N2C1CC1 [NVP, nevirapine, reference compound] |  |  |  |  |  |  |  |  |  |  |  |  |  |  |  |  |  | 53.4 ± 2.7% |  |  | %C percentage cytotoxicity MOLT-3 ([1]; human, 48 h, 50 µg/mL): %C = 29.0 ^c; %C percentage cytotoxicity MRC-5 ([2]; human, 48 h, 50 µg/mL): %C = 1.0 ^c; %C percentage cytotoxicity HL-60 (HL-60 (promyeloblast); human, 48 h, 50 µg/mL): %C = 3.0 ^c; %C percentage cytotoxicity HeLA ([3]; human, 48 h, 50 µg/mL): %C = 34.0 ^c; %C percentage cytotoxicity MDA-MB-231 ([4]; human, 48 h, 50 µg/mL): %C = 8.9 ^c; %C percentage cytotoxicity HepG2 (HepG2 (hepatocarcinoma); human, 48 h, 50 µg/mL): %C = 15.4 ^c; %C percentage cytotoxicity HuCCA-1 ([5]; human, 48 h, 50 µg/mL): %C = 11.0 ^c; %C percentage cytotoxicity A549 (A549 (lung carcinoma); human, 48 h, 50 µg/mL): %C = 18.0 ^c; %C percentage cytotoxicity T47-D ([6]; human, 48 h, 50 µg/mL): %C = 14.0 ^c; %C percentage cytotoxicity S102 (S102 (Thai liver cancer); human, 48 h, 50 µg/mL): %C = 3.0 ^c; %C percentage cytotoxicity H69AR [7, 9]: %C = 8.0 ^c
4,4′-di-(2’,6’-Dimethyl-4’-formylphenoxy)-2,2′-biquinoline [Compound 7b] |  |  |  |  |  |  |  |  |  |  |  |  |  |  |  |  |  |  |  |  | Inhibitory activities (%) against HIV-1 RT (HIV-1 RT; 1 µM, mean ± standard error): 30.3 ± 2.3%
Cc1cc(/C=C\C#N)cc(C)c1Oc1cc(Nc2ccc(C#N)cn2)nc2ccccc12 [Compound 10b-cis, 4-(4′-(2″-(E, Z)-cyanovinyl)-2′,6′-dimethyl-phenoxy)-2-(5″-cyanopyridin-2″ylamino)-aminoquinoline] |  |  |  |  |  |  |  |  |  | %C = 0.0 ^c | %C = 5.0 ^c | %C = 0.0 ^c | %C = 0.0 ^c | %C = 0.0 ^c | %C = 0.0 ^c | %C = 0.0 ^c | %C = 0.0 ^c | 29.4 ± 3.6% | %C = 0.0 ^c | %C = 11.0 ^c | %C percentage cytotoxicity HeLA [3, 9]: %C = 0.0 ^c
Cc1cc(/C=C/C#N)cc(C)c1Oc1cc(Nc2ccc(C#N)cn2)nc2ccccc12 [Compound 10b-trans, 4-(4′-(2″-(E, Z)-cyanovinyl)-2′,6′-dimethyl-phenoxy)-2-(5″-cyanopyridin-2″ylamino)-aminoquinoline] |  |  |  |  |  |  |  |  |  | %C = 0.0 ^c | %C = 31.0 ^c | %C = 17.0 ^c | %C = 1.0 ^c | %C = 0.0 ^c | %C = 1.0 ^c | %C = 0.0 ^c | %C = 3.1 ^c | 32.4 ± 3.5% | %C = 0.0 ^c | %C = 2.0 ^c | %C percentage cytotoxicity HeLA [3, 9]: %C = 10.0 ^c
